From PMC9821324, “Pinostrobin Suppresses the α-Melanocyte-Stimulating Hormone-Induced Melanogenic Signaling Pathway” (International Journal of Molecular Sciences, 2023)

Biological target: T1, mushroom tyrosinase (Agaricus bisporus, UniProt C7FF04)
T1 construct: gene PPO3
Test: cell-free mushroom tyrosinase assay with L-tyrosine, absorbance at […] nm, single concentration […]
Format: biochemical
Settings: read-out: % inhibition at 250 nM

T1 sequence (C7FF04 2-392): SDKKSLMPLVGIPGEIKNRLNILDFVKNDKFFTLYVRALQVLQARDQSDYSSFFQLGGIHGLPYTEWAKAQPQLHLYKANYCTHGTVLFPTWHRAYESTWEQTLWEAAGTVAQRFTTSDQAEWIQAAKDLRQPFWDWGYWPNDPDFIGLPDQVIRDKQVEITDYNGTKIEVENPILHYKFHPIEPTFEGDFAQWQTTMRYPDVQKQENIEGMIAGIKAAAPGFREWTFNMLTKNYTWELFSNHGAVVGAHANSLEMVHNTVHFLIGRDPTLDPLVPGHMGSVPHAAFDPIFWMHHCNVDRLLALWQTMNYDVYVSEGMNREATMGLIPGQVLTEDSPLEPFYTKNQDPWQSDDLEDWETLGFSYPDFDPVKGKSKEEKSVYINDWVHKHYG

`NC(=S)Nc1ccccc1` [PTU, phenylthiourea] gave an inhibition at 0.25 µM of 74.7%.
